According to PubChem BioAssay (NCI):
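Growth conditions: 96-well plates. Treatment: test compound, 48 hours, 5 concentrations. Analysis: linear interpolation between bracketing concentrations; unreached endpoints set to highest concentration. GI50: concentration for 50% inhibition of growth. TGI: concentration producing complete growth inhibition.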

Tests used:
Assay in all cases: NCI tumour cell line growth inhibition, 48 h; in the data active means GI50 below about 0.43 µM; inactive means the rest
[1] = system: TK-10 renal
[2] = system: NCI-H23 lung
[3] = system: DU-145 prostate
[4] = system: OVCAR-3 ovarian
[5] = system: PC-3 prostate
[6] = system: RXF 393 renal
[7] = system: HOP-62 NSCLC
[8] = system: ACHN renal
[9] = system: BT-549 breast
[10] = system: NCI/ADR-RES ovarian
[11] = system: IGROV1 ovarian
[12] = system: UACC-257 melanoma
[13] = system: 786-0 renal
[14] = system: OVCAR-8 ovarian
[15] = system: HCT-15 colon
[16] = system: MDA-MB-435
[17] = system: SK-MEL-28 melanoma
[18] = system: CAKI-1 renal
[19] = system: OVCAR-4 ovarian
[20] = system: CCRF-CEM leukemia
[21] = system: NCI-H460 lung
[22] = system: MDA-MB-231 breast
[23] = system: KM12 colon
[24] = system: HS 578T breast
[25] = system: MALME-3M melanoma
[26] = system: SNB-75 CNS
[27] = system: HOP-92 NSCLC
[28] = system: MCF7 breast
[29] = system: HL-60(TB) leukemia
[30] = system: SNB-19 CNS
[31] = system: SW-620 colon
[32] = system: HCC-2998 colon
[33] = system: HCT-116 colon
[34] = system: OVCAR-5 ovarian
[35] = system: RPMI-8226 leukemia
[36] = system: EKVX NSCLC
[37] = system: NCI-H226 lung
[38] = system: SF-295 CNS
[39] = system: HT29 colon
[40] = system: UO-31 renal
[41] = system: A549 NSCLC
[42] = system: K-562 leukemia
[43] = system: SK-MEL-5 melanoma
[44] = system: UACC-62 melanoma
[45] = system: M14 melanoma
[46] = system: SK-MEL-2 melanoma
[47] = system: U251 CNS
[48] = system: SK-OV-3 ovarian
[49] = system: SF-268 CNS
[50] = system: NCI-H522 lung
[51] = system: SF-539 CNS
[52] = system: SN12C renal
[53] = system: A498 renal
[54] = system: COLO 205 colon
[55] = system: T-47D breast
[56] = system: MOLT-4 leukemia
[57] = system: LOX IMVI melanoma

Cn1cc(-c2nn3cc(-c4cccs4)nc3s2)c2cc(F)ccc21
70.9 µM: TGI [48]
19.1 µM: TGI [10]
6.45 µM: TGI [26]
15.5 µM: TGI [29]
50 µM: TGI [53]
33.9 µM: TGI [32]
26.5 µM: TGI [35]
9.67 µM: TGI [4]
active: GI50 [16] 0.293 µM
5.73 µM: TGI [6]
17.1 µM: TGI [21]
76.9 µM: TGI [27]
inactive: GI50 [1] 4.92 µM | GI50 [2] 3.82 µM | GI50 [3] 3.67 µM | GI50 [4] 2.06 µM | GI50 [5] 3.19 µM | GI50 [6] 1.59 µM | GI50 [7] 1.92 µM | GI50 [8] 3.39 µM | GI50 [9] 5.54 µM | GI50 [10] 0.991 µM | GI50 [11] 1.93 µM | GI50 [12] 7.9 µM | GI50 [13] 7.62 µM | GI50 [14] 4.53 µM | GI50 [15] 0.606 µM | GI50 [17] 7.23 µM | GI50 [18] 2.42 µM | GI50 [19] 5.77 µM | GI50 [20] 2.54 µM | GI50 [21] 1.73 µM | GI50 [22] 3.23 µM | GI50 [23] 1.04 µM | GI50 [24] 2.34 µM | GI50 [25] 1.81 µM | GI50 [26] 1.29 µM | GI50 [27] 12.2 µM | GI50 [28] 0.836 µM | GI50 [29] 1.34 µM | GI50 [30] 3.44 µM | GI50 [31] 0.478 µM | GI50 [32] 5.64 µM | GI50 [33] 2.04 µM | GI50 [34] 8.24 µM | GI50 [35] 3.01 µM | GI50 [36] 2.51 µM | GI50 [37] 4.56 µM | GI50 [38] 2.24 µM | GI50 [39] 0.477 µM | GI50 [40] 1.72 µM | GI50 [41] 2.85 µM | GI50 [42] 0.451 µM | GI50 [43] 1.8 µM | GI50 [44] 1.93 µM | GI50 [45] 1.05 µM | GI50 [46] 1.59 µM | GI50 [47] 2.76 µM | GI50 [48] 3.47 µM | GI50 [49] 6.58 µM | GI50 [50] 1.62 µM | GI50 [51] 2.18 µM | GI50 [52] 4.71 µM | GI50 [53] 4.09 µM
30.6 µM: TGI [22]
57.4 µM: TGI [18]
84.4 µM: TGI [34]
52.3 µM: TGI [13]
24.5 µM: TGI [50]
13.4 µM: TGI [24]
14.8 µM: TGI [39]
12.9 µM: TGI [43]
1.13 µM: TGI [16]
77.4 µM: TGI [9]
35.8 µM: TGI [37]
> 100 µM: TGI [2] | TGI [5] | TGI [11] | TGI [12] | TGI [14] | TGI [15] | TGI [17] | TGI [19] | TGI [20] | TGI [23] | TGI [30] | TGI [31] | TGI [36] | TGI [40] | TGI [42] | TGI [44] | TGI [45] | TGI [49] | TGI [52]
23.1 µM: TGI [7]
17.9 µM: TGI [47]
95.6 µM: TGI [41]
31.6 µM: TGI [3] | TGI [25]
86.8 µM: TGI [8]
30 µM: TGI [28]
7.54 µM: TGI [51]
26.4 µM: TGI [33]
19.4 µM: TGI [1]
7.29 µM: TGI [46]
9.39 µM: TGI [38]

CC1SC2(CCCCC2)N(NC(=O)c2[nH]c3ccc(F)cc3c2-c2ccccc2)C1=O (stereo not given)
inactive: GI50 [1] 35.3 µM | GI50 [2] > 100 µM | GI50 [3] > 100 µM | GI50 [4] 25.2 µM | GI50 [5] 41.2 µM | GI50 [6] 28.3 µM | GI50 [7] 19.7 µM | GI50 [8] > 100 µM | GI50 [9] > 100 µM | GI50 [11] 16 µM | GI50 [12] 90.9 µM | GI50 [13] 28.4 µM | GI50 [14] 23.1 µM | GI50 [15] > 100 µM | GI50 [54] > 100 µM | GI50 [16] > 100 µM | GI50 [17] > 100 µM | GI50 [18] > 100 µM | GI50 [19] 41.6 µM | GI50 [20] > 100 µM | GI50 [21] > 100 µM | GI50 [22] 31 µM | GI50 [23] 63.7 µM | GI50 [24] 66.8 µM | GI50 [25] 26.1 µM | GI50 [55] > 100 µM | GI50 [26] 27.2 µM | GI50 [27] 16.9 µM | GI50 [28] > 100 µM | GI50 [30] 55.6 µM | GI50 [56] > 100 µM | GI50 [31] > 100 µM | GI50 [32] > 100 µM | GI50 [33] 64.9 µM | GI50 [34] > 100 µM | GI50 [35] 41.2 µM | GI50 [36] > 100 µM | GI50 [57] > 100 µM | GI50 [37] > 100 µM | GI50 [38] 35.8 µM | GI50 [39] > 100 µM | GI50 [40] > 100 µM | GI50 [41] 72.3 µM | GI50 [42] 35.4 µM | GI50 [43] > 100 µM | GI50 [44] 21.2 µM | GI50 [45] > 100 µM | GI50 [46] 76.2 µM | GI50 [47] 48.5 µM | GI50 [48] > 100 µM | GI50 [49] 78.7 µM | GI50 [50] 54.4 µM | GI50 [51] > 100 µM | GI50 [52] 37.1 µM | GI50 [53] > 100 µM
62 µM: TGI [26]
89.2 µM: TGI [13]
63.5 µM: TGI [14]
60.9 µM: TGI [7]
59.9 µM: TGI [27]
97.3 µM: TGI [11]
> 100 µM: TGI [1] | TGI [2] | TGI [3] | TGI [4] | TGI [5] | TGI [6] | TGI [8] | TGI [9] | TGI [12] | TGI [15] | TGI [54] | TGI [16] | TGI [17] | TGI [18] | TGI [19] | TGI [20] | TGI [21] | TGI [22] | TGI [23] | TGI [24] | TGI [25] | TGI [55] | TGI [28] | TGI [30] | TGI [56] | TGI [31] | TGI [32] | TGI [33] | TGI [34] | TGI [35] | TGI [36] | TGI [57] | TGI [37] | TGI [38] | TGI [39] | TGI [40] | TGI [41] | TGI [42] | TGI [43] | TGI [44] | TGI [45] | TGI [46] | TGI [47] | TGI [48] | TGI [49] | TGI [50] | TGI [51] | TGI [52] | TGI [53]

COc1ncnc2c(-c3ccco3)cn(COCc3ccccc3)c12
inactive: GI50 [1] 17.8 µM | GI50 [2] > 50 µM | GI50 [3] > 50 µM | GI50 [4] > 50 µM | GI50 [5] 3.5 µM | GI50 [6] > 50 µM | GI50 [7] > 50 µM | GI50 [8] > 50 µM | GI50 [10] > 50 µM | GI50 [11] > 50 µM | GI50 [12] > 50 µM | GI50 [13] 17.7 µM | GI50 [14] > 50 µM | GI50 [54] > 50 µM | GI50 [16] > 50 µM | GI50 [17] > 50 µM | GI50 [18] > 50 µM | GI50 [19] > 50 µM | GI50 [20] > 50 µM | GI50 [22] > 50 µM | GI50 [23] > 50 µM | GI50 [24] 18.6 µM | GI50 [25] > 50 µM | GI50 [55] 2.98 µM | GI50 [26] 12.7 µM | GI50 [29] > 50 µM | GI50 [30] > 50 µM | GI50 [31] > 50 µM | GI50 [32] > 50 µM | GI50 [33] 3.76 µM | GI50 [34] > 50 µM | GI50 [35] 4.87 µM | GI50 [36] 11.5 µM | GI50 [57] > 50 µM | GI50 [37] > 50 µM | GI50 [38] > 50 µM | GI50 [39] > 50 µM | GI50 [41] > 50 µM | GI50 [42] > 50 µM | GI50 [43] 1.28 µM | GI50 [44] 8.2 µM | GI50 [45] 22.5 µM | GI50 [46] 48.8 µM | GI50 [47] 10.6 µM | GI50 [48] > 50 µM | GI50 [49] > 50 µM | GI50 [50] 9.97 µM | GI50 [51] > 50 µM | GI50 [52] > 50 µM | GI50 [53] 0.697 µM
> 50 µM: TGI [1] | TGI [2] | TGI [3] | TGI [4] | TGI [5] | TGI [6] | TGI [7] | TGI [8] | TGI [10] | TGI [11] | TGI [12] | TGI [13] | TGI [14] | TGI [54] | TGI [16] | TGI [17] | TGI [18] | TGI [19] | TGI [20] | TGI [22] | TGI [23] | TGI [24] | TGI [25] | TGI [55] | TGI [26] | TGI [29] | TGI [30] | TGI [31] | TGI [32] | TGI [33] | TGI [34] | TGI [35] | TGI [36] | TGI [57] | TGI [37] | TGI [38] | TGI [39] | TGI [41] | TGI [42] | TGI [43] | TGI [44] | TGI [45] | TGI [46] | TGI [47] | TGI [48] | TGI [49] | TGI [50] | TGI [51] | TGI [52] | TGI [53]

CC(C)(C)c1cc(C(=O)Nc2cc3ccccc3cc2C(=O)NCCN)cc(C(C)(C)C)c1
0.396 µM: TGI [27]
3.17 µM: TGI [43]
4.57 µM: TGI [24]
active: GI50 [3] 0.374 µM | GI50 [27] 0.146 µM
1.29 µM: TGI [3]
2.44 µM: TGI [18]
inactive: GI50 [12] 2.35 µM | GI50 [18] 1.13 µM | GI50 [19] 1.24 µM | GI50 [24] 1.65 µM | GI50 [43] 1.65 µM
4.98 µM: TGI [12]
2.7 µM: TGI [19]
